Data published in PMC12551014 (Journal of Enzyme Inhibition and Medicinal Chemistry, 2025).

Legend:
[1] = Microsomal stability, mouse; assay type: in vitro ADME; settings: after 60 min, pooled mouse microsomes, NADPH, 37 °C
CYP2C9 = CYP2C9 (Homo sapiens, UniProt P11712); test: Cytochrome P450 inhibition assay, CYP2C9; assay type: biochemical; settings: probe 7-methoxy-4-(trifluoromethyl)coumarin
human sEH = target: T1, human sEH (Homo sapiens, UniProt P34913); test: Enzymatic sEH activity assay; assay type: biochemical
T1 sequence (P34913 1-555): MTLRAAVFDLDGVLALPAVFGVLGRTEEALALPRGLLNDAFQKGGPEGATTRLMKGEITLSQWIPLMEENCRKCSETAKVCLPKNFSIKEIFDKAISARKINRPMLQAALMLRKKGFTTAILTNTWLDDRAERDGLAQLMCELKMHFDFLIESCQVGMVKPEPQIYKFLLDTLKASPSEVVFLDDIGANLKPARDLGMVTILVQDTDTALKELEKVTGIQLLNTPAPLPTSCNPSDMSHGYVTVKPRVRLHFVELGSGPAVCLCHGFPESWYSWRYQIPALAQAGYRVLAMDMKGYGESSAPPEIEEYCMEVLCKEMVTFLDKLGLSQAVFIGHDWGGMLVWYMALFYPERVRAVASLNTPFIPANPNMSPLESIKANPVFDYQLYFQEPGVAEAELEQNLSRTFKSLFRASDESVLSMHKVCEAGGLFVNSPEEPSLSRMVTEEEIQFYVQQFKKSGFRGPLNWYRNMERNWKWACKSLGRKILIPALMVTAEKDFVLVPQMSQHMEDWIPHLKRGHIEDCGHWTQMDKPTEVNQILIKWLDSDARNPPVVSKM

CYP3A4 = CYP3A4 (Homo sapiens, UniProt P08684); test: Cytochrome P450 inhibition assay, CYP3A4; assay type: biochemical; settings: probe dibenzylfluorescein (DBF)
CYP3A4, sequence (P08684 whole entry): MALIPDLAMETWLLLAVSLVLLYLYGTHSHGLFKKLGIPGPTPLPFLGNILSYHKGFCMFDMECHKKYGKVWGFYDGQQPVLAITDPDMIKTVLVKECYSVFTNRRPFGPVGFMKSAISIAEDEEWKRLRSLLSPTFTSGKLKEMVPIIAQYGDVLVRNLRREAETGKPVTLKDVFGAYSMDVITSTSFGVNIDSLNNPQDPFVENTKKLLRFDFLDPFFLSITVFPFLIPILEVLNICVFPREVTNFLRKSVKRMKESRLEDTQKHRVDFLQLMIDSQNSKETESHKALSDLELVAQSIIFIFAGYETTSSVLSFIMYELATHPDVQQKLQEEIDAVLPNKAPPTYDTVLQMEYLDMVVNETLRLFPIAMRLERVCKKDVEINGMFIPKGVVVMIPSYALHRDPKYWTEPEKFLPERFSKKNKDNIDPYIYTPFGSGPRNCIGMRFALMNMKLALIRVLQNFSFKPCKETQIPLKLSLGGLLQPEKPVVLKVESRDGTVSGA

[2] = Microsomal stability, human; assay type: in vitro ADME; settings: after 60 min, pooled human microsomes, NADPH, 37 °C
murine sEH = target: T2, murine sEH (Mus musculus, UniProt P34914); test: Enzymatic sEH activity assay; assay type: biochemical
T2 sequence (P34914 1-554): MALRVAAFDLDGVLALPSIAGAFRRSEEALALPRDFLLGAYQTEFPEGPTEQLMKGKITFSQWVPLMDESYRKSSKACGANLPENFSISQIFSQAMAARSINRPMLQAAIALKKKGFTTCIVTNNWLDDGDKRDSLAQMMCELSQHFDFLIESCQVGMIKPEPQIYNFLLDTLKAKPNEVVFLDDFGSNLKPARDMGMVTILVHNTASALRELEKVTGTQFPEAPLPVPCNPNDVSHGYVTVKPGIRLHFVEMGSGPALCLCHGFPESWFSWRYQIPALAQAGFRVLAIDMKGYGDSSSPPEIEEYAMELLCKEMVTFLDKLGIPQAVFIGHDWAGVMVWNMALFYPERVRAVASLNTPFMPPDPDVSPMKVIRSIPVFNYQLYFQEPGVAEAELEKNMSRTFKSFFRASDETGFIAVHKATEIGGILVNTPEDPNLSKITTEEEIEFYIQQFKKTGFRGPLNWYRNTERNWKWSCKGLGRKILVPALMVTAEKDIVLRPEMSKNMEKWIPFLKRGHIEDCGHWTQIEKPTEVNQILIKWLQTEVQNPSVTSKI

CYP2D6 = CYP2D6 (Homo sapiens, UniProt P10635); test: Cytochrome P450 inhibition assay, CYP2D6; assay type: biochemical
CYP2D6, sequence (P10635 whole entry): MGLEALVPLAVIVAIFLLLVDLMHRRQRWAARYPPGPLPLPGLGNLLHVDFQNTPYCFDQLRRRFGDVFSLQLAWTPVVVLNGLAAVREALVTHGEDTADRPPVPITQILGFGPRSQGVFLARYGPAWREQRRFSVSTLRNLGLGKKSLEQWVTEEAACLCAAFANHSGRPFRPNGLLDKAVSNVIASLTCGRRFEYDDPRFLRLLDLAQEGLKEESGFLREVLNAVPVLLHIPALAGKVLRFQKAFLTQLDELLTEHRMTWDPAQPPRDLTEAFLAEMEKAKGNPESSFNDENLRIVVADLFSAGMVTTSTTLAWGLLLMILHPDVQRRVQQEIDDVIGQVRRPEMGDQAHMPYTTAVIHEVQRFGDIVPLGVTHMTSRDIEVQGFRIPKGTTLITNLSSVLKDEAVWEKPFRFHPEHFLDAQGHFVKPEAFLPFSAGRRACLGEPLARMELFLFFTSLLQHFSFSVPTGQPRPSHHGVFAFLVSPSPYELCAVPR

hERG = hERG (Homo sapiens, UniProt Q12809); test: hERG inhibition assay; assay type: cell-based; settings: CHO cells transfected with hERG (CHO hERG-Duo cell line)
hERG, sequence (Q12809 whole entry): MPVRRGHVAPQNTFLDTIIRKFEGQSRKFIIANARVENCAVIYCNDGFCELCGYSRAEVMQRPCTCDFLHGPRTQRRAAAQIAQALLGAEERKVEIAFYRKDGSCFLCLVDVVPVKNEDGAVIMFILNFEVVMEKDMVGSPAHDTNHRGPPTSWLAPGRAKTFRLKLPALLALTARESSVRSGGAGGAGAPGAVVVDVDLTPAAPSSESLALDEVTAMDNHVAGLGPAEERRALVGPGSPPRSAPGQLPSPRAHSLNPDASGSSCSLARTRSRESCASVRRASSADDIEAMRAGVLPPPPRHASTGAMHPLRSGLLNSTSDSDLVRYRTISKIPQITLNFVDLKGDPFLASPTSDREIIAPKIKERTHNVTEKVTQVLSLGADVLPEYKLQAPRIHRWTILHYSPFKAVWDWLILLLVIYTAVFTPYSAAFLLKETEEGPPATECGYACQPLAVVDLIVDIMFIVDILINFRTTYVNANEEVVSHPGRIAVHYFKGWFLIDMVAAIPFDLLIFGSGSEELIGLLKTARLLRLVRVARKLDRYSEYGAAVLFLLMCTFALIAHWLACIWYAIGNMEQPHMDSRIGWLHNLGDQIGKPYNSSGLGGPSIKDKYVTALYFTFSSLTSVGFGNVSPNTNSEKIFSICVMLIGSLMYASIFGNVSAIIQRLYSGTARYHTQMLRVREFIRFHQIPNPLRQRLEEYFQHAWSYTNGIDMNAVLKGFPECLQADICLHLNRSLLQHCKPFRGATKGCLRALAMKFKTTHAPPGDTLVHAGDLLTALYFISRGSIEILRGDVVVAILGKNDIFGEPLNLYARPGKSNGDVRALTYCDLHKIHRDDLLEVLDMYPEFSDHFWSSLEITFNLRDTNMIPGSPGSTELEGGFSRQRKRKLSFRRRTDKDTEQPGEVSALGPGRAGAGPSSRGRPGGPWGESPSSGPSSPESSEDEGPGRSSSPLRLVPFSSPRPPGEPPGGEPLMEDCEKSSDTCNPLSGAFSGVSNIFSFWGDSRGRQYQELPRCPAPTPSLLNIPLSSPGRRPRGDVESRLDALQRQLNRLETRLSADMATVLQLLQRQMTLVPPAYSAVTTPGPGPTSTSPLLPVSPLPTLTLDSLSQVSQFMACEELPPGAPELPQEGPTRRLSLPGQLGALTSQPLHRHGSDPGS

[3] = system: paclitaxel-induced tactile allodynia; test: Paclitaxel-induced neuropathic pain, mechanical allodynia; assay type: in vivo, female WT-CD1 mice
[4] = predicted BBB permeation class
SH-SY5Y cells = test: Cytotoxicity in SH-SY5Y cells; assay type: cell-based, human; settings: 100 µM, MTT and PI assays
[5] = Pharmacokinetic study in plasma and brain, subcutaneous; assay type: in vivo, male CD1 mice; settings: for AUC: male CD1 mice, 5 mg/kg single dose s.c.
[6] = target: T3, human soluble epoxide hydrolase (hsEH) (Homo sapiens, UniProt P34913); test: sEH immunoblotting in HEK293 cells; assay type: cell-based; settings: HEK293, 4 h treatment, 10-fold titration 10 nM to 10 µM
T3 sequence (P34913 1-555): T1 sequence (P34913 1-555)

[7] = male, CD1, mouse, plasma, sc, 5 mg/kg

CYP2C9, sequence (P11712 whole entry): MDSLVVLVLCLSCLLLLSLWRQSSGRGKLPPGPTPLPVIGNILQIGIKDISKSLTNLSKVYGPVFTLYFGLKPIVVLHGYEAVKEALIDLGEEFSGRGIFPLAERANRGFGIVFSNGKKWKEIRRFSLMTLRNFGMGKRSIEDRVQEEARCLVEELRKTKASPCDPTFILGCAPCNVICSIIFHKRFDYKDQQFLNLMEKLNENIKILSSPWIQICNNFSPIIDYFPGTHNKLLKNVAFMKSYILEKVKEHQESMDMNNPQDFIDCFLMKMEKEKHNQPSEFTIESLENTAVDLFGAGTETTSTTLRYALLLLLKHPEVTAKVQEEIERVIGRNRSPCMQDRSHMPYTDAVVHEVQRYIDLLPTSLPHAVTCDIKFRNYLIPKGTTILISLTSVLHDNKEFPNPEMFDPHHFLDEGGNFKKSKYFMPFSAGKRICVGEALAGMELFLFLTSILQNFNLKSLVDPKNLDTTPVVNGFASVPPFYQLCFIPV

Row | SMILES | Microsomal stability Mouse, percentage of remaining compound [1] | inhibition at 10 µM (CYP2C9) | IC50 (human sEH) | inhibition at 10 µM (CYP3A4) | Microsomal stability Human, percentage of remaining compound [2] | IC50 (murine sEH) | inhibition at 10 µM (CYP2D6) | other results
1 | COc1cc2c(cc1OC)C1CC3(C)CC2CC(NC(=O)NC2CCN(C(C)=O)CC2)(C1)C3 [Compound 19, 1-(1-Acetylpiperidin-4-yl)-3–(2,3-dimethoxy-9-methyl-5,6,8,9,10,11-hexahydro-7H-5,9:7,11-dimethanobenzo[9]annulen-7-yl)urea] | 70% | 8 ± 1% | 1.3 nM | 15 ± 4% | 100% | 2.2 nM | 2 ± 2% | –
2 | CC(=O)N1CCC(NC(=O)NC23CC4CC(C)(CC(C2)c2cc(N)ccc24)C3)CC1 (stereo not drawn) [Compound 18, 1-(1-Acetylpiperidin-4-yl)-3–(2-amino-9-methyl-5,6,8,9,10,11-hexahydro-7H-5,9:7,11-dimethanobenzo[9]annulen-7-yl)urea] | – | – | 25 nM | – | – | 17.1 nM | – | –
3 | COc1cc2c(cc1OC)C1CC3(C)CC2CC(NC(=O)NC2CCN(C(=O)C4CCOCC4)CC2)(C1)C3 [Compound 20, 1-(2,3-Dimethoxy-9-methyl-5,6,8,9,10,11-hexahydro-7H-5,9:7,11-dimethanobenzo[9]annulen-7-yl)-3–(1-(tetrahydro-2H-pyran-4-carbonyl)piperidin-4-yl)urea] | 96% | 22 ± 2% | 0.4 nM | 43 ± 1% | 80% | 1.9 nM | 36 ± 5% | inhibition at 30 min, 10 µM (hERG): 11 ± 2%
4 | NCC1(CC(=O)O)CCCCC1 [gabapentin, reference compound] | – | – | – | – | – | – | – | Dose achieving full / maximum antiallodynic effect ([3]; s.c., paclitaxel-treated mice): 20 mg/kg
5 | COc1ccc2c(c1)C1CC3(C)CC2CC(NC(=O)NC2CCN(C(C)=O)CC2)(C1)C3 (stereo not drawn) [Compound 15, 1-(1-Acetylpiperidin-4-yl)-3–(2-methoxy-9-methyl-5,6,8,9,10,11-hexahydro-7H-5,9:7,11-dimethanobenzo[9]annulen-7-yl)urea] | 32% | 12 ± 3% | – | 12 ± 4% | 33% | 1.7 nM | 8 ± 2% | –
6 | C#CCOc1ccccc1CCCCCC(=O)NS(C)(=O)=O [MS-PPOH, N-methanesulfonyl-6–(2-proparyloxyphenyl)hexanamide, reference compound] | – | – | – | – | – | – | – | Effect on paclitaxel-induced tactile allodynia (alone) ([3]; 20 mg/kg s.c., day 10 after paclitaxel): did not alter paclitaxel-induced tactile allodynia; Effect of MS-PPOH on the antiallodynic effect of 21 ([3]; MS-PPOH 20 mg/kg s.c. 5 min before 21 5 mg/kg s.c., measured at 90 min): fully abolished the effect of compound 21
7 | CC(=O)c1ccc2c(c1)C1CC3(C)CC2CC(NC(=O)NC2CCN(C(C)=O)CC2)(C1)C3 (stereo not drawn) [Compound 16, 1-(2-Acetyl-9-methyl-5,6,8,9,10,11-hexahydro-7H-5,9:7,11-dimethanobenzo[9]annulen-7-yl)-3–(1-acetylpiperidin-4-yl)urea] | 70% | 9 ± 3% | 4.1 nM | 3 ± 2% | 92% | 6.7 nM | 7 ± 2% | –
8 | CC(=O)N1CCC(NC(=O)NC23CC4CC(C)(CC(C2)c2c(F)cccc24)C3)CC1 (stereo not drawn) [Compound 13, 1-(1-Acetylpiperidin-4-yl)-3–(1-fluoro-9-methyl-5,6,8,9,10,11-hexahydro-7H-5,9:7,11-dimethanobenzo[9]annulen-7-yl)urea] | 1% | 6 ± 3% | – | 9 ± 3% | 16% | 0.8 nM | 1 ± 2% | PAMPA-BBB [4]: CNS +
9 | CC(=O)N1CCC(NC(=O)NC23CC4CC(C)(CC(C2)c2cc([N+](=O)[O-])ccc24)C3)CC1 (stereo not drawn) [Compound 17, 1-(1-Acetylpiperidin-4-yl)-3–(9-methyl-2-nitro-5,6,8,9,10,11-hexahydro-7H-5,9:7,11-dimethanobenzo[9]annulen-7-yl)urea] | 27% | 20 ± 4% | 4.5 nM | 10 ± 1% | 100% | 4.5 nM | 8 ± 3% | –
10 | CC(=O)N1CCC(NC(=O)NC23CC4CC(C)(CC(C2)c2cc(F)ccc24)C3)CC1 (stereo not drawn) [Compound 14, 1-(1-Acetylpiperidin-4-yl)-3–(2-fluoro-9-methyl-5,6,8,9,10,11-hexahydro-7H-5,9:7,11-dimethanobenzo[9]annulen-7-yl)urea] | 4% | 12 ± 2% | – | 13 ± 3% | 22% | 0.6 nM | 5 ± 2% | PAMPA-BBB [4]: CNS +
11 | COc1cc2c(cc1OC)C1CC3(F)CC2CC(NC(=O)NC2CCN(C(=O)C4CCOCC4)CC2)(C1)C3 [Compound 21, 1-(9-Fluoro-2,3-dimethoxy-5,6,8,9,10,11-hexahydro-7H-5,9:7,11-dimethanobenzo[9]annulen-7-yl)-3–(1-(tetrahydro-2H-pyran-4-carbonyl)piperidin-4-yl)urea] | 86% | 8 ± 1% | – | 1 ± 1% | 100% | 2.9 nM | 15 ± 4% | inhibition at 30 min, 10 µM (hERG): 9 ± 1%; Prevention of development of paclitaxel-induced neuropathic pain ([3]; 5 mg/kg s.c. 30 min before each paclitaxel dose, tested at 10, 14, 21 days): showed no signs of sensory hypersensitivity at any time point tested; Dose achieving full / maximum antiallodynic effect ([3]; s.c., paclitaxel-treated mice): 5 mg/kg; Time of peak / maximum antiallodynic effect after administration ([3]; s.c., paclitaxel-treated mice): 90 min; Cytotoxicity at the highest concentration tested (SH-SY5Y cells): not cytotoxic; Compound level in brain samples ([5]; 5 mg/kg s.c., multiple time points 0.08–18 h): undetectable in all brain samples; Cmax [5, 7]: 1600 ng/mL; Tmax [5, 7]: 2 h; AUC ([5]; male, CD1, mouse, plasma, sc, 5 mg/kg, AUC^inf): 5600 ng·h/mL; AUC ([5]; male, CD1, mouse, plasma, sc, 5 mg/kg, AUC^last): 5500 ng·h/mL; hsEH protein levels (degradation) [6]: No significant degradation was observed; PAMPA-BBB [4]: CNS −
